In patent US20120245137A1 (Zalicus Pharmaceuticals Ltd., priority 2009, published 2012):
pIC50: −log10 of the molar value.

Columns and labels:
Format in all cases: cell-based
[1] = molecular target: human α1G T-type channels (Homo sapiens, UniProt O43497); test: T-type calcium channel block, whole cell patch clamp, α1G; settings: HEK cells stably expressing human α1G; mainly non-inactivated protocol; values above 10,000 nM represented as 10000
How it was run: (§1)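 Using standard patch-clamp, T-type currents were recorded from stably transfected human α1G or α1H HEK 293 cells. Separate non-inactivating and inactivation voltage protocols distinguished resting from voltage-dependent block by locally applied compound in 0.1-0.01% DMSO.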

[2] = molecular target: human α1H T-type channels (Homo sapiens, UniProt O95180); test: T-type calcium channel block, whole cell patch clamp, α1H; settings: HEK cells stably expressing human α1H; mainly non-inactivated protocol; values above 10,000 nM represented as 10000
human α1H T-type channels, sequence (O95180 whole entry): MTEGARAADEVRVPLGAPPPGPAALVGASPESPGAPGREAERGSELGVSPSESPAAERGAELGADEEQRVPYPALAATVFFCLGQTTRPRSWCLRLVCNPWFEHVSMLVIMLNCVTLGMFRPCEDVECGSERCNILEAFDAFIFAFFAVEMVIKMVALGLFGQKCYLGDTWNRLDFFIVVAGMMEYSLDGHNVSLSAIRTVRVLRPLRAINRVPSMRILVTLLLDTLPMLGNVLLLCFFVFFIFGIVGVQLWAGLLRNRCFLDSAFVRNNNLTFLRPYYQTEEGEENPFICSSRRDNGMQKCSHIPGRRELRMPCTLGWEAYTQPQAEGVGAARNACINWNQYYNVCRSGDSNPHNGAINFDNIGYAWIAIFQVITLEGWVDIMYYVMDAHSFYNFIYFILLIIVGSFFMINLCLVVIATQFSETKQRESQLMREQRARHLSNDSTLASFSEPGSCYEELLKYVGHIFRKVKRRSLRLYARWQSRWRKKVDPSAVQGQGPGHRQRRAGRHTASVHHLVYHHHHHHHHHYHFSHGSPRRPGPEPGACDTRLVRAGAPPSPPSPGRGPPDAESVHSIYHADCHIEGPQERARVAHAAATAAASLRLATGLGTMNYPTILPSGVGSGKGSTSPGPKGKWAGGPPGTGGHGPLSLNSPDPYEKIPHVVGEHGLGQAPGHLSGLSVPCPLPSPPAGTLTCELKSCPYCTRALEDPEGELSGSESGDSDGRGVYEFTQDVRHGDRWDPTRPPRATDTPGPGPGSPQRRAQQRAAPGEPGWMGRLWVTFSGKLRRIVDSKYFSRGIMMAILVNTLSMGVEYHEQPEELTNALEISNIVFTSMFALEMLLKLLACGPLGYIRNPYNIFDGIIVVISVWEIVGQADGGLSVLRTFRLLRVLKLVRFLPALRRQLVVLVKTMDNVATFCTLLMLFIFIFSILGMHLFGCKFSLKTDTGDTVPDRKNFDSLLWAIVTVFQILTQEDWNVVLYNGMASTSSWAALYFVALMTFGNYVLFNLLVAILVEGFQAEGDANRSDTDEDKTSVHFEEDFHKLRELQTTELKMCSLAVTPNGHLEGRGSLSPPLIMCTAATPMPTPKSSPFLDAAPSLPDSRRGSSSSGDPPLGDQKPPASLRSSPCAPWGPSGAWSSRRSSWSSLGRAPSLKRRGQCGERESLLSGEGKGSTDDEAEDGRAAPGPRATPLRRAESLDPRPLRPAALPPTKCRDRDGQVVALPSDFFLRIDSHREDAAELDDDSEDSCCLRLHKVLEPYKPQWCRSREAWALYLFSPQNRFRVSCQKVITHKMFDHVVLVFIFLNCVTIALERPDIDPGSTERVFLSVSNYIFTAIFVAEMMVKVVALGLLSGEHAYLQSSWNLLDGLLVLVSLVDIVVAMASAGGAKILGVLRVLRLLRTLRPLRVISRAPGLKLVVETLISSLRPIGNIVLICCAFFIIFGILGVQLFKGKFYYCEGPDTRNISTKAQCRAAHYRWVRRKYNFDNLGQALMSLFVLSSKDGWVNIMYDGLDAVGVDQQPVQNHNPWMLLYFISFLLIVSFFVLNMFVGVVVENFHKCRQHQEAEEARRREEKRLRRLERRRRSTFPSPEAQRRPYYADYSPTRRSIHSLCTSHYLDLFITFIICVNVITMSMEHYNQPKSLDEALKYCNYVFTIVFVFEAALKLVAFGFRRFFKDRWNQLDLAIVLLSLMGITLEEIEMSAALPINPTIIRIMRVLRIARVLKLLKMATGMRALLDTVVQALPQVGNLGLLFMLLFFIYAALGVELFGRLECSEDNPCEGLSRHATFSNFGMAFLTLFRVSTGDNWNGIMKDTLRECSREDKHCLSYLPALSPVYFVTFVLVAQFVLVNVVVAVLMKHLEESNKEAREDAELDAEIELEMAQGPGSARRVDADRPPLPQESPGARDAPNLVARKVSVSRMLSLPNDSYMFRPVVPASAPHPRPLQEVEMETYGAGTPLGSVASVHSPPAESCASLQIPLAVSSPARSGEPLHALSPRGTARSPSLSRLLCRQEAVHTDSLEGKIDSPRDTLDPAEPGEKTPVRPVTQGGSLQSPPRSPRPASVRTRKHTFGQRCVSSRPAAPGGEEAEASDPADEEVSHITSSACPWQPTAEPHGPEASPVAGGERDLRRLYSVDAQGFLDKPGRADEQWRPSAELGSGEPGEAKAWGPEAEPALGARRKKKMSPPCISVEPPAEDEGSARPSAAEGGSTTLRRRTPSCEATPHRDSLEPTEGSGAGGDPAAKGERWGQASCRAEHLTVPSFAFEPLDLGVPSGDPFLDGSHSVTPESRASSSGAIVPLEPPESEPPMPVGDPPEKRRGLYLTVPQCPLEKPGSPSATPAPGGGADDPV
How it was run: as §1

[3] = molecular target: N-type calcium channel subunits (α1B, α2δ, and β3a) (Homo sapiens, UniProt Q00975); test: Block of Cav2.2 channel, whole cell voltage clamp, manual and PatchXpress; settings: Table 5; table follows Assay Example 3 (whole cell voltage clamp / PatchXpress); assay not given
How it was run: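 Percent block taken as current amplitude ratio with versus without compound, applied in rising doses; IC50 fitted where one cell received multiple doses. Protocol: 50 ms pulses to +20 mV at 0.067 Hz from […] or −90 mV holding; P/n leak subtraction, no junction-potential correction; manual and PatchXpress recordings.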

human α1G T-type channels, sequence (O43497 whole entry): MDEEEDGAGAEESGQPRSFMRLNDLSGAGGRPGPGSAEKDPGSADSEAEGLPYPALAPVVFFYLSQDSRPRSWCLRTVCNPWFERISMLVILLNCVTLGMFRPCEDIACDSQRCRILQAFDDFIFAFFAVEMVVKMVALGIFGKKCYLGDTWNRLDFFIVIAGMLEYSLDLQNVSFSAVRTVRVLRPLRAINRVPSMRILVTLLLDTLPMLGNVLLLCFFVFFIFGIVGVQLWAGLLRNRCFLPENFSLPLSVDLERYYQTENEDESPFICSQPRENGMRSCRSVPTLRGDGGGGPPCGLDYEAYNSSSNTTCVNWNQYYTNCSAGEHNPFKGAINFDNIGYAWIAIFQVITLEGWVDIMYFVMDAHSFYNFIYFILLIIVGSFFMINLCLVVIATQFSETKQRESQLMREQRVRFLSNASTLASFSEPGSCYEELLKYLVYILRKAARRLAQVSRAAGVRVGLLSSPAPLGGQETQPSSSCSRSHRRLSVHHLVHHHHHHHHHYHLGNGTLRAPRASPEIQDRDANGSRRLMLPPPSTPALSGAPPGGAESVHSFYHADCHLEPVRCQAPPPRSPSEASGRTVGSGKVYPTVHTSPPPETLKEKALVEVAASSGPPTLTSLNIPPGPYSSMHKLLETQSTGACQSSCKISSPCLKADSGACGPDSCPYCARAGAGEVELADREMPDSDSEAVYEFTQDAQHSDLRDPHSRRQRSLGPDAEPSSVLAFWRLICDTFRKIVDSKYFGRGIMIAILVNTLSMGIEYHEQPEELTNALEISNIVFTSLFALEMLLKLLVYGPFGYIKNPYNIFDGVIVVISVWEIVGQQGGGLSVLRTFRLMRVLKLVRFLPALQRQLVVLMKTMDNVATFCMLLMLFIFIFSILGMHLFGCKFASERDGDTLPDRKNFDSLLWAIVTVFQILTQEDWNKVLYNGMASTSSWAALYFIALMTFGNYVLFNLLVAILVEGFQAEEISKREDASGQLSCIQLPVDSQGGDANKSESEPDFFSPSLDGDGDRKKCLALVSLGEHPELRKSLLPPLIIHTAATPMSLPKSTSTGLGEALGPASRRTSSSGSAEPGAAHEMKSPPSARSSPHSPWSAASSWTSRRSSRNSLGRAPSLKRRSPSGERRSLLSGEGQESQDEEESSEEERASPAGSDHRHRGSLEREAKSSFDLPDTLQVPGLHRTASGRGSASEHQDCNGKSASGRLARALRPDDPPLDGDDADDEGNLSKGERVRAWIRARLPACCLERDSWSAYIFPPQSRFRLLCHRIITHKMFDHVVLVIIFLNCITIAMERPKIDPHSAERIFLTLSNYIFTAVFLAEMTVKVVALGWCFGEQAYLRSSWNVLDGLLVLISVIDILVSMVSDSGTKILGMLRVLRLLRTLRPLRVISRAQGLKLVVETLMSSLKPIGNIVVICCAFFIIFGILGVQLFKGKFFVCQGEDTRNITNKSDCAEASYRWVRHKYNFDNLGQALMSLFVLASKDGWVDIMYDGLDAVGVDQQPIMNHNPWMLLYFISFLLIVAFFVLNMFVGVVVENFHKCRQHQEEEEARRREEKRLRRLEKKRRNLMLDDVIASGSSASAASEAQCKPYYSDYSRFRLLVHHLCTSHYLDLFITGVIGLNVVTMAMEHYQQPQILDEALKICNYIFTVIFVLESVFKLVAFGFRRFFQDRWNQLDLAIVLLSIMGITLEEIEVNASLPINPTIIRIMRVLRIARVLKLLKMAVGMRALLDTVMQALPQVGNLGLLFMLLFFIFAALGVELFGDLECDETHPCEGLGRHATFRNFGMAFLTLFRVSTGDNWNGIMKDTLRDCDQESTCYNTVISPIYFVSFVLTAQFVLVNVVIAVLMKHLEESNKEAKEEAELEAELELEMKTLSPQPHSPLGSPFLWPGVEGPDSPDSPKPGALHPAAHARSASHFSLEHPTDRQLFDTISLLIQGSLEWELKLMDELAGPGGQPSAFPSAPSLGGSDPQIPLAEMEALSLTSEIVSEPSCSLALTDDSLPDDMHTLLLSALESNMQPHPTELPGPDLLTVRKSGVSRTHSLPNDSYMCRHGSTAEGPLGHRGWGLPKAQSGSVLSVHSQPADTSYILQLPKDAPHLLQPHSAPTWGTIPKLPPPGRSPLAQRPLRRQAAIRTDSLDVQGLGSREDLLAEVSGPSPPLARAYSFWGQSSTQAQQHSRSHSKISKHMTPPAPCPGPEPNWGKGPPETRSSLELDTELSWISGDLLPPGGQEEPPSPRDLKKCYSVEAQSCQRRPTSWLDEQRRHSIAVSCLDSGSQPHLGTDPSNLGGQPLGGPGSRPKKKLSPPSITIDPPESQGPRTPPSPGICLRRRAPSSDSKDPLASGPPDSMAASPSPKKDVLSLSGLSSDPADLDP

SMILES	pIC50 [1]	pIC50 [2]	IC50 [3] [nM]
CC1(CNCC(=O)NC(C)(C)C)CCC(F)(S(=O)(=O)c2cccc(C(F)(F)F)c2)CC1 (stereo not drawn) [Compound 159, N-tert-butyl-2-((4-fluoro-1-methyl-4-(3-(trifluoromethyl)phenylsulfonyl)cyclohexyl)methylamino)acetamide]	< 5.00	< 5.00	460
Cn1nc(C(F)(F)F)cc1C(=O)NC[C@H]1C[C@@H](S(=O)(=O)c2cccc(C(F)(F)F)c2)C1 [Compound 378, 1-methyl-3-(trifluoromethyl)-N-(((1S,3S)-3-(3-(trifluoromethyl)phenylsulfonyl)cyclobutyl)methyl)-1H-pyrazole-5-carboxamide]	5.55	5.79	1130
O=C(N[C@H]1CC[C@@](F)(S(=O)(=O)c2cccc(OC(F)(F)F)c2)CC1)c1cc(F)cc(Cl)c1 [Compound 251]	5.44	6.24	150
CC(C)NC(=O)CN[C@H]1CC[C@@H](S(=O)(=O)c2cccc(C(F)(F)F)c2)CC1 [Compound 52, N-isopropyl-2-((1S,4S)-4-(3-(trifluoromethyl)phenylsulfonyl)cyclohexylamino)acetamide]	6.07	6.10	1540
CC1(NC(=O)c2ccc(F)c(C(F)(F)F)c2)CCC(S(=O)(=O)c2cccc(C(F)(F)F)c2)CC1 (stereo not drawn) [Compound 309, 4-fluoro-N-(1-methyl-4-(3-(trifluoromethyl)phenylsulfonyl)cyclohexyl)-3-(trifluoromethyl)benzamide]	5.00	< 5.00	1390
O=C(Nc1ccc(C(F)(F)F)cn1)[C@H]1C[C@@H](S(=O)(=O)c2cccc(C(F)(F)F)c2)C1 [Compound 416, (1S,3S)-3-(3-(trifluoromethyl)phenylsulfonyl)-N-(5-(trifluoromethyl)pyridin-2-yl)cyclobutanecarboxamide]	< 5.00	5.09	1650
O=C(NC1CCC(S(=O)(=O)c2cccc(C(F)(F)F)c2)CC1)c1ccc(C(F)(F)F)cn1 (stereo not drawn) [Compound 10, 5-(trifluoromethyl)-N-(4-(3-(trifluoromethyl)phenylsulfonyl)cyclohexyl)picolinamide]	5.38	5.42	1460
CC1(S(=O)(=O)c2cccc(C(F)(F)F)c2)CCN(C(=O)CNC2CCCCC2)CC1 [Compound 18, 2-(cyclohexylamino)-l-(4-methyl-4-(3-(trifluoromethyl)phenylsulfonyl)piperidin-l-yl)ethanone]	5.51	5.57	390
O=C(CNC1CCC(F)(F)CC1)N[C@H]1CC[C@H](CS(=O)(=O)c2cccc(C(F)(F)F)c2)CC1 [Compound 165, 2-(4,4-difluorocyclohexylamino)-N-((1R,4R)-4-((3-(trifluoromethyl)phenylsulfonyl)methyl)cyclohexyl)acetamide]	5.36	5.86	540
CN(C(=O)c1cn2cc(C(F)(F)F)ccc2n1)[C@H]1CC[C@@](F)(S(=O)(=O)c2cc(F)cc(C(F)(F)F)c2)CC1 [Compound 338, N-((1S,4S)-4-fluoro-4-(3-fluoro-5-(trifluoromethyl)phenylsulfonyl)cyclohexyl)-N-methyl-6-(trifluoromethyl) imidazo[1,2-a]pyridine-2-carboxamide]	< 5.00	5.17	770
O=C(N[C@H]1CC[C@@](F)(S(=O)(=O)c2cccc(C(F)(F)F)c2)CC1)c1cc2cnccc2nc1C(F)(F)F [Compound 266, N-((1S,4S)-4-fluoro-4-(3-(trifluoromethyl)phenylsulfonyl)cyclohexyl)-2-(trifluoromethyl)-1,6-naphthyridine-3-carbosamide]	5.44	5.25	2440
Cc1noc(C)c1S(=O)(=O)NC[C@H]1C[C@H](S(=O)(=O)c2cccc(C(F)(F)F)c2)C1 [Compound 422, 3,5-dimethyl-N-(((1R,3R)-3-(3-(trifluoromethyl)phenylsulfonyl)cyclobutyl)methyl)isoxazole-4-sulfonamide]	5.65	5.86	2670
O=C(N[C@H]1C[C@H](CS(=O)(=O)c2cccc(C(F)(F)F)c2)C1)c1ccc(C(F)(F)F)nc1 [Compound 346, 6-(trifluoromethyl)-N-((1R,3R)-3-((3-(trifluoromethyl)phenylsulfonyl)methyl)cyclobutyl)nicotinamide]	5.90	6.39	5540

Results, then the molecule that gave them:

pIC50 [1]	pIC50 [2]	IC50 [3] [nM]	SMILES
< 5.00	< 5.00	350	O=C(N[C@H]1CC[C@@](F)(S(=O)(=O)c2cc(F)cc(C(F)(F)F)c2)CC1)c1ccc(F)c(Cl)c1 [Compound 329, 3-chloro-4-fluoro-N-((1S,4S)-4-fluoro-4-(3-fluoro-5-(trifluoromethyl)phenylsulfonyl)cyclohexyl) benzamide]
6.42	6.66	410	O=C(N[C@H]1CC[C@](F)(S(=O)(=O)c2cccc(C(F)(F)F)c2)CC1)c1cc(F)cc(Cl)c1 [Compound 81, 3-chloro-5-fluoro-N-((1R,4R)-4-fluoro-4-(3-(trifluoromethyl)phenylsulfonyl)cyclohexyl)benzamide]
5.67	5.91	850	O=C(N[C@H]1CC[C@@](F)(S(=O)(=O)c2cccc(C(F)(F)F)c2)CC1)c1nc2cc(C(F)(F)F)ccc2[nH]1 [Compound 85, N-((1S,4S)-4-fluoro-4-(3-(trifluoromethyl)phenylsulfonyl)cyclohexyl)-5-(trifluoromethyl)-1H-benzo[d]imidazole-2-carboxamide]
5.54	5.83	250	CS(=O)(=O)c1cc(Cl)ccc1C(=O)N[C@H]1CC[C@@](F)(S(=O)(=O)c2cccc(C(F)(F)F)c2)CC1 [Compound 262, 4-chloro-N-((1S,4S)-4-fluoro-4-(3-(trifluoromethyl)phenylsulfonyl)cyclohexyl)-2-(methylsulfonyl)benzamide]
5.65	6.19	330	CC1(NC(=O)c2ccc(F)c(C(F)(F)F)c2)CCC(F)(S(=O)(=O)c2cccc(C(F)(F)F)c2)CC1 (stereo not drawn) [Compound 92, 4-fluoro-N-(4-fluoro-1-methyl-4-(3-(trifluoromethyl)phenylsulfonyl)cyclohexyl)-3-(trifluoromethyl)benzamide]
5.13	5.74	3000	COc1cc(F)cc(C(=O)N[C@H]2CC[C@](F)(S(=O)(=O)c3cccc(C(F)(F)F)c3)CC2)c1 [Compound 82, 3-fluoro-N-((1R,4R)-4-fluoro-4-(3-(trifluoromethyl)phenylsulfonyl)cyclohexyl)-5-methoxybenzamide]
5.28	5.52	60	CC1(S(=O)(=O)c2cccc(C(F)(F)F)c2)CCC(NC(=O)c2cc(F)cc(Cl)c2)CC1 (stereo not drawn) [Compound 19, 3-chloro-5-fluoro-N-(4-methyl-4-(3-(trifluoromethyl)phenylsulfonyl)cyclohexyl)benzamide]
5.86	5.93	950	CC1(S(=O)(=O)c2cccc(C(F)(F)F)c2)CCC(NC(=O)c2cnc(C(F)(F)F)nc2)CC1 (stereo not drawn) [Compound 2, N-(4-methyl-4-(3-(trifluoromethyl)phenylsulfonyl)cyclohexyl)-2-(trifluoromethyl) pyrimidine-5-carboxamide]
5.60	5.45	210	O=C(N[C@H]1CC[C@@](F)(S(=O)(=O)c2cccc(C(F)(F)F)c2)CC1)c1ccc(Cl)cc1Cl [Compound 270, 2,4-dichloro-N-((1S,4S)-4-fluoro-4-(3-(trifluoromethyl)phenylsulfonyl)cyclohexyl) benzamide]
5.38	5.64	1450	CC1(NC(=O)c2cc(C(F)(F)F)ccn2)CCC(S(=O)(=O)c2cccc(C(F)(F)F)c2)CC1 (stereo not drawn) [Compound 308, N-(1-methyl-4-(3-(trifluoromethyl)phenylsulfonyl)cyclohexyl)-4-(trifluoromethyl)picolinamide]
< 5.00	5.32	960	O=C(NC[C@H]1C[C@@H](S(=O)(=O)c2cccc(C(F)(F)F)c2)C1)c1cn2cc(C(F)(F)F)ccc2n1 [Compound 384, 6-(trifluoromethyl)-N-(((1S,3S)-3-(3-(trifluoromethyl)phenylsulfonyl)cyclobutyl)methyl)imidazo[l,2-a]pyridine-2-carboxamide]
5.87	5.95	260	CC1(CNC(=O)c2ccc(C(F)(F)F)cc2S(C)(=O)=O)CCC(S(=O)(=O)c2cccc(C(F)(F)F)c2)CC1 (stereo not drawn) [Compound 207]
< 5.00	< 5.00	550	O=C(N[C@H]1CC[C@H](S(=O)(=O)c2cccc(C(F)(F)F)c2)CC1)c1cc(F)cc(C(F)(F)F)c1 [Compound 65, 3-fluoro-5-(trifluoromethyl)-N-((1R,4R)-4-(3-(trifluoromethyl)phenylsulfonyl)cyclohexyl)benzamide]
6.19	6.64	3760	CC(C)(C)NC(=O)CN[C@H]1C[C@H](CS(=O)(=O)c2cccc(C(F)(F)F)c2)C1 [Compound 352, N-tert-butyl-2-((1R,3R)-3-((3-(trifluoromethyl)phenylsulfonyl)methyl)cyclobutylamino)acetamide]
